Tests used:
[1] = molecular target: Ribosomal protein S6 kinase alpha-3 (Homo sapiens) (UniProt P51812); experiment: Inhibition of RSK2 at 1 uM
[2] = molecular target: Ribosomal protein S6 kinase alpha-2 (Homo sapiens) (UniProt Q15349); experiment: Inhibition of RSK3 at 1 uM
[3] = molecular target: Ribosomal protein S6 kinase alpha-6 (Homo sapiens) (UniProt Q9UK32); experiment: Inhibition of RSK4 at 1 uM
[4] = molecular target: Serine/threonine-protein kinase Sgk1 (Homo sapiens) (UniProt O00141); experiment: Inhibition of SGK1 at 1 uM
[5] = molecular target: Angiopoietin-1 receptor (Homo sapiens) (UniProt Q02763); experiment: Inhibition of TIE2 at 1 uM
[6] = molecular target: Tyrosine-protein kinase Yes (Homo sapiens) (UniProt P07947); experiment: Inhibition of YES at 1 uM
[7] = Plasma concentration in mouse at 33 mg/kg, po after 4 hrs; format: ADME, organism-based; design: dose 33 mg/kg, route oral
[8] = Plasma concentration in mouse at 33 mg/kg, po after 8 hrs; format: ADME, organism-based; design: dose 33 mg/kg, route oral
[9] = molecular target: Rho-associated protein kinase 1 (Homo sapiens, UniProt Q13464); experiment: Inhibition of ROCK1
[10] = molecular target: Mitogen-activated protein kinase 10 (Homo sapiens, UniProt P53779); experiment: Inhibition of JNK3
[11] = molecular target: Tyrosine-protein kinase JAK2 (Homo sapiens, UniProt O60674); experiment: Inhibition of JAK2
[12] = molecular target: Tyrosine-protein kinase JAK3 (Homo sapiens, UniProt P52333); experiment: Inhibition of JAK3
[13] = molecular target: Interleukin-1 receptor-associated kinase 4 (Homo sapiens, UniProt Q9NWZ3); experiment: Inhibition of IRAK4
[14] = molecular target: Dual specificity mitogen-activated protein kinase kinase 1 (Homo sapiens, UniProt Q02750); experiment: Inhibition of MEK1
[15] = molecular target: Tyrosine-protein kinase ITK/TSK (Homo sapiens, UniProt Q08881); experiment: Inhibition of ITK
[16] = molecular target: Citron Rho-interacting kinase (Homo sapiens, UniProt O14578); experiment: Inhibition of CIT
[17] = molecular target: Mitogen-activated protein kinase kinase kinase 10 (Homo sapiens, UniProt Q02779); experiment: Inhibition of MLK2
[18] = molecular target: RAC-gamma serine/threonine-protein kinase (Homo sapiens, UniProt Q9Y243); experiment: Inhibition of AKT3 at 1 uM
[19] = molecular target: 5'-AMP-activated protein kinase catalytic subunit alpha-2 (Homo sapiens) (UniProt P54646); experiment: Inhibition of AMPK at 2 uM
[20] = molecular target: Tyrosine-protein kinase Blk (Homo sapiens) (UniProt P51451); experiment: Inhibition of BLK at 2 uM
Sequence of Tyrosine-protein kinase Blk (Homo sapiens) (P51451 2-505 limits assumed): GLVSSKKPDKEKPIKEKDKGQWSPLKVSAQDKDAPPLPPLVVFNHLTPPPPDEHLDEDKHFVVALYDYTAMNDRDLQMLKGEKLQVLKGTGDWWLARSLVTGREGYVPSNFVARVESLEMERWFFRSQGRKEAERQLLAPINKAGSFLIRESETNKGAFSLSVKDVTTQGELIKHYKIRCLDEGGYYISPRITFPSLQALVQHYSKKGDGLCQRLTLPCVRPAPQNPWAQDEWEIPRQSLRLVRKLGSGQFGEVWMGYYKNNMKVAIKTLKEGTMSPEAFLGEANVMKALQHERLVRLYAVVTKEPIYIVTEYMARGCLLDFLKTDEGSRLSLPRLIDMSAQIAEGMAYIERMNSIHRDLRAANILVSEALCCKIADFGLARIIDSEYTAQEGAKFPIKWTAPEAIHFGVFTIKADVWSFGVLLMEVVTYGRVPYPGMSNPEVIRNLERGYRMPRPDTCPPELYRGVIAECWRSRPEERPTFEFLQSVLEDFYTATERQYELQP

[21] = molecular target: Cytoplasmic tyrosine-protein kinase BMX (Homo sapiens) (UniProt P51813); experiment: Inhibition of BMX at 1 uM
[22] = molecular target: Serine/threonine-protein kinase BRSK1 (Homo sapiens) (UniProt Q8TDC3); experiment: Inhibition of BRSK1 at 1 uM
[23] = molecular target: Tyrosine-protein kinase BTK (Homo sapiens) (UniProt Q06187); experiment: Inhibition of BTK at 1 uM
[24] = molecular target: Calcium/calmodulin-dependent protein kinase type IV (Homo sapiens) (UniProt Q16566); experiment: Inhibition of CAMK4 at 2 uM
[25] = molecular target: Cyclin-dependent kinase 5 (Homo sapiens) (UniProt Q00535); experiment: Inhibition of CDK5 at 1 uM
[26] = molecular target: Serine/threonine-protein kinase Chk1 (Homo sapiens) (UniProt O14757); experiment: Inhibition of CHK1 at 2 uM
[27] = molecular target: Tyrosine-protein kinase CSK (Homo sapiens) (UniProt P41240); experiment: Inhibition of CSK at 2 uM
Sequence of Tyrosine-protein kinase CSK (Homo sapiens) (P41240 2-450 limits assumed): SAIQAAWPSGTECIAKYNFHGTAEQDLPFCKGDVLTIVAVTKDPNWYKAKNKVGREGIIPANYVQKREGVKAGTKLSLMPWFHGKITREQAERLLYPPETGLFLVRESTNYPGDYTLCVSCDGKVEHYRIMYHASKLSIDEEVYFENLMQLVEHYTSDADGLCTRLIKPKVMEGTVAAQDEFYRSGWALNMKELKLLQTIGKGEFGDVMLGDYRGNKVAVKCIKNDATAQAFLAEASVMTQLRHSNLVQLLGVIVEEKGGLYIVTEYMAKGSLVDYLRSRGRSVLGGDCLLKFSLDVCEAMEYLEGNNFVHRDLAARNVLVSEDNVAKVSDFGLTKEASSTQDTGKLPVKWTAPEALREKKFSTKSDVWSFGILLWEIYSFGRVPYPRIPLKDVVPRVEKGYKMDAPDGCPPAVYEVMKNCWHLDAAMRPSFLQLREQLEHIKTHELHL

[28] = molecular target: Tyrosine-protein kinase CSK (Homo sapiens) (UniProt P41240); experiment: Inhibition of CSK at 1 uM
[29] = molecular target: Death-associated protein kinase 1 (Homo sapiens) (UniProt P53355); experiment: Inhibition of DAPK1 at 1 uM
[30] = molecular target: Serine/threonine-protein kinase DCLK2 (Homo sapiens) (UniProt Q8N568); experiment: Inhibition of DCAMKL2 at 1 uM
[31] = molecular target: Ephrin type-B receptor 4 (Homo sapiens) (UniProt P54760); experiment: Inhibition of EPH-B4 at 1 uM
[32] = molecular target: Fibroblast growth factor receptor 1 (Homo sapiens) (UniProt P11362); experiment: Inhibition of FGFR1 at 1 uM
[33] = molecular target: Fibroblast growth factor receptor 2 (Homo sapiens) (UniProt P21802); experiment: Inhibition of FGFR2 at 1 uM
Sequence of Fibroblast growth factor receptor 2 (Homo sapiens) (P21802 22-821 limits assumed): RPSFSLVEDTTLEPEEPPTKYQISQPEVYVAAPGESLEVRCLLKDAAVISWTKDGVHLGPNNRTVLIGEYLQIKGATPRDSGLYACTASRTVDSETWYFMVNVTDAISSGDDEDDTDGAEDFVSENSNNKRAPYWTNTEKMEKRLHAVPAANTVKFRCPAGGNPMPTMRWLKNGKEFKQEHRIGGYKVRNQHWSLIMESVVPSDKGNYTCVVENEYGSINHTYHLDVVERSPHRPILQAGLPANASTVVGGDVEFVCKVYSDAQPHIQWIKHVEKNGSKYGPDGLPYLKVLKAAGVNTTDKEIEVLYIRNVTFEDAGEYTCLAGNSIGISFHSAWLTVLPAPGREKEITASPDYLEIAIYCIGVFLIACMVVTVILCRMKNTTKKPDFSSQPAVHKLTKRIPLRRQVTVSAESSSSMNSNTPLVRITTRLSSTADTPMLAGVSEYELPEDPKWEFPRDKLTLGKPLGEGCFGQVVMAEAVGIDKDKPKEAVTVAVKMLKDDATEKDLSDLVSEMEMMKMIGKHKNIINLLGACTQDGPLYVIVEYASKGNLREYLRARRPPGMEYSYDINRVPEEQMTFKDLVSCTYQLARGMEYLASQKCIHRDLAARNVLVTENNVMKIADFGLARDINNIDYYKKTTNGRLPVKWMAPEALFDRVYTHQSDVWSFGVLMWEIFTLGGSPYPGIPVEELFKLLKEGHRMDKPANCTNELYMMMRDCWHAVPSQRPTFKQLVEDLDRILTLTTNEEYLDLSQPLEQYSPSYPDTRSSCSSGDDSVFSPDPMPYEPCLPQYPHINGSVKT

[34] = molecular target: Macrophage colony-stimulating factor 1 receptor (Homo sapiens) (UniProt P07333); experiment: Inhibition of FMS at 1 uM
[35] = molecular target: Insulin receptor (Homo sapiens) (UniProt P06213); experiment: Inhibition of INSR at 1 uM
[36] = molecular target: Mitogen-activated protein kinase 9 (Homo sapiens) (UniProt P45984); experiment: Inhibition of JNK2 at 2 uM
[37] = molecular target: Tyrosine-protein kinase Lyn (Homo sapiens) (UniProt P07948); experiment: Inhibition of LYN at 2 uM
[38] = molecular target: Mitogen-activated protein kinase kinase kinase kinase 4 (Homo sapiens) (UniProt O95819); experiment: Inhibition of MAP4K4 at 1 uM
[39] = molecular target: MAP kinase-activated protein kinase 2 (Homo sapiens) (UniProt P49137); experiment: Inhibition of MAPKAPK-2 at 1 uM
[40] = molecular target: Dual specificity mitogen-activated protein kinase kinase 4 (Homo sapiens) (UniProt P45985); experiment: Inhibition of MKK4 at 2 uM
[41] = molecular target: Serine/threonine-protein kinase Nek1 (Homo sapiens) (UniProt Q96PY6); experiment: Inhibition of NEK1 at 1 uM
Sequence of Serine/threonine-protein kinase Nek1 (Homo sapiens) (Q96PY6 whole entry): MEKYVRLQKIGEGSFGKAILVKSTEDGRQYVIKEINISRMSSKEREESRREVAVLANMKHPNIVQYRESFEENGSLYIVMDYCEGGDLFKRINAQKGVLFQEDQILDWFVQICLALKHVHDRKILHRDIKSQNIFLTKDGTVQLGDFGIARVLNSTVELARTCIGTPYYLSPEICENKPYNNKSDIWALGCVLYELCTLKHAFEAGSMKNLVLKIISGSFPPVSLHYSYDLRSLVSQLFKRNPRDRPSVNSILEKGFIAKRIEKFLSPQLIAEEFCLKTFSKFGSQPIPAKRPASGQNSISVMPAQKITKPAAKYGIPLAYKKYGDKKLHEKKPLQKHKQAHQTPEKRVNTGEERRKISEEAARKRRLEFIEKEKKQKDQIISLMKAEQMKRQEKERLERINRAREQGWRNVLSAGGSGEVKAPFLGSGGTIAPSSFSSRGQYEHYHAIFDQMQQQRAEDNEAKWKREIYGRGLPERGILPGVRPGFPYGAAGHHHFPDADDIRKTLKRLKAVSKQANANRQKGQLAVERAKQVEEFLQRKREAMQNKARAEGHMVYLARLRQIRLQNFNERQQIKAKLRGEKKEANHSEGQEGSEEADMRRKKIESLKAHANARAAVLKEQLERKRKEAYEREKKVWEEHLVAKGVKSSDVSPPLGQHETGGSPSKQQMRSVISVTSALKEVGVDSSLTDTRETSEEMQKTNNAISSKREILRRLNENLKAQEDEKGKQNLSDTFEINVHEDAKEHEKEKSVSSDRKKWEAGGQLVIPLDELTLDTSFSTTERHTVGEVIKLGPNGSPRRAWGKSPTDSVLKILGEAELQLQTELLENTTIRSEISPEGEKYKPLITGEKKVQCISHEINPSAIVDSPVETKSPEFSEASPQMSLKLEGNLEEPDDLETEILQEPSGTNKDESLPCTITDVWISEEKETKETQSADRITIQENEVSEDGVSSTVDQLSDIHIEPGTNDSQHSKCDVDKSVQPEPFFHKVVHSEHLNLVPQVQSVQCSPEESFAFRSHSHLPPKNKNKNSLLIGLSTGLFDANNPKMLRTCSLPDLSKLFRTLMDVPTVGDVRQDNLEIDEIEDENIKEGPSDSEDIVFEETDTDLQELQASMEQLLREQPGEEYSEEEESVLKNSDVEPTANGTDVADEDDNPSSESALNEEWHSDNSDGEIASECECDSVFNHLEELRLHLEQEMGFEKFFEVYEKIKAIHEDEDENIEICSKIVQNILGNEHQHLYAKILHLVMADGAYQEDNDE

[42] = molecular target: Ribosomal protein S6 kinase beta-1 (Homo sapiens) (UniProt P23443); experiment: Inhibition of P70S6K at 2 uM
[43] = molecular target: Serine/threonine-protein kinase PAK 1 (Homo sapiens) (UniProt Q13153); experiment: Inhibition of PAK1 at 1 uM
[44] = molecular target: PAS domain-containing serine/threonine-protein kinase (Homo sapiens) (UniProt Q96RG2); experiment: Inhibition of PASK at 1 uM
[45] = molecular target: Platelet-derived growth factor receptor alpha (Homo sapiens) (UniProt P16234); experiment: Inhibition of PDGFRalpha at 2 uM
Sequence of Platelet-derived growth factor receptor alpha (Homo sapiens) (P16234 whole entry): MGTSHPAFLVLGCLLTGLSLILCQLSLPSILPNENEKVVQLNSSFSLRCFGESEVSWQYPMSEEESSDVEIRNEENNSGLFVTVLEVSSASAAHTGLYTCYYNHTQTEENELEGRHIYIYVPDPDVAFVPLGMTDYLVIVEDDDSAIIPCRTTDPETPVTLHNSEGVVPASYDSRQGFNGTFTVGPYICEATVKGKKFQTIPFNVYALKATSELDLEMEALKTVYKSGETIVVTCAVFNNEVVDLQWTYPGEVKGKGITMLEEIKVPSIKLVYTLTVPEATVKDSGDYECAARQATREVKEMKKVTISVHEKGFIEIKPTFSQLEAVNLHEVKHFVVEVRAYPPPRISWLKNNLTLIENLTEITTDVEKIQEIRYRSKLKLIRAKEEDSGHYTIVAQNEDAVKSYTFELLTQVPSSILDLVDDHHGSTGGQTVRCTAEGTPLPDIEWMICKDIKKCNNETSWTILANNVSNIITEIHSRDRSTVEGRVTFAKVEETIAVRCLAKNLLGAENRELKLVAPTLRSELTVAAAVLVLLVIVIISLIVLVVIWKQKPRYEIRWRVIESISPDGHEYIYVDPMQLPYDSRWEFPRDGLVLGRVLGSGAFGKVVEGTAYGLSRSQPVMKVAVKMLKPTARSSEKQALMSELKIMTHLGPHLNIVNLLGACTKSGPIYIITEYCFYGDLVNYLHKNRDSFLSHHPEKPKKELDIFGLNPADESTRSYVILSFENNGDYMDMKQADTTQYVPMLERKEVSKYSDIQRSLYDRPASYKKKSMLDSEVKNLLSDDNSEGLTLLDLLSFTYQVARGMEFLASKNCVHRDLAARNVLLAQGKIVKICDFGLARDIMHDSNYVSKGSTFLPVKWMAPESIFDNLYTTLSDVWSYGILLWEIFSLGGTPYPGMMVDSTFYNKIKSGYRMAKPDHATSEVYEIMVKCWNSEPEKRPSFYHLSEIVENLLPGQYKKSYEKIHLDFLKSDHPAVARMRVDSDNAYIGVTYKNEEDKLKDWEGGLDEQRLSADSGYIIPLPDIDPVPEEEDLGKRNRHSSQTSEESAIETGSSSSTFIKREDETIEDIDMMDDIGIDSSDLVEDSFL

[46] = molecular target: [Pyruvate dehydrogenase (acetyl-transferring)] kinase isozyme 1, mitochondrial (Homo sapiens) (UniProt Q15118); experiment: Inhibition of PDK1 at 2 uM
[47] = molecular target: Serine/threonine-protein kinase D2 (Homo sapiens) (UniProt Q9BZL6); experiment: Inhibition of PRKD2 at 1 uM
Sequence of Serine/threonine-protein kinase D2 (Homo sapiens) (Q9BZL6 whole entry): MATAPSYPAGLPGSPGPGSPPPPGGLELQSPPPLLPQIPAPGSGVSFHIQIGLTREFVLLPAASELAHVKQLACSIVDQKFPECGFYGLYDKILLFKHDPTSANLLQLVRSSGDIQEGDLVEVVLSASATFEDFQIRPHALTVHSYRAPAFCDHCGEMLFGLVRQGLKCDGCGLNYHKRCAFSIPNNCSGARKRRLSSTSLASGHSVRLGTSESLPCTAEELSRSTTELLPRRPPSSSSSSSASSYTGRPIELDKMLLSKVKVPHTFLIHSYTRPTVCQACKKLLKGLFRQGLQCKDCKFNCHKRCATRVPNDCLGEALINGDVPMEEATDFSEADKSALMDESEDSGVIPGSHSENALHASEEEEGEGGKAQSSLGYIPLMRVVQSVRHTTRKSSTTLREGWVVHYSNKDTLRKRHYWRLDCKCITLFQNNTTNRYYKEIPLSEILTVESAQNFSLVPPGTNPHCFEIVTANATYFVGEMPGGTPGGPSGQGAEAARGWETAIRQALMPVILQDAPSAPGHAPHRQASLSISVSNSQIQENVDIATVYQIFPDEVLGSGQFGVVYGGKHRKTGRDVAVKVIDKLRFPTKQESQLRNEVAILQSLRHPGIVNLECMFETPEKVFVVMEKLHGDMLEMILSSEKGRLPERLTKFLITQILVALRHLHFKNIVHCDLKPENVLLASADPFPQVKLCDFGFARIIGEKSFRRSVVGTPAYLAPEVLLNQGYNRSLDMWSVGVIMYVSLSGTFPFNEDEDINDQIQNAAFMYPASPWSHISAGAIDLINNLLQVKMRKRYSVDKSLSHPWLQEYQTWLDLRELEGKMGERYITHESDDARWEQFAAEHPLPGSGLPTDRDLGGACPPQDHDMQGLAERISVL

[48] = molecular target: Protein-tyrosine kinase 2-beta (Homo sapiens) (UniProt Q14289); experiment: Inhibition of PYK2 at 1 uM
[49] = molecular target: RAF proto-oncogene serine/threonine-protein kinase (Homo sapiens) (UniProt P04049); experiment: Inhibition of cRAF at 2 uM
[50] = Plasma concentration in rat at 3 mg/kg, iv after 8 hrs; format: ADME, organism-based; design: dose 3 mg/kg, route intravenous
[51] = molecular target: Cyclin-dependent kinase 2 (Homo sapiens, UniProt P24941)

SMILES: Cc1cnc(Nc2ccc(F)cc2Cl)nc1-c1c[nH]c(C(=O)N[C@H](CO)c2cccc(Cl)c2)c1
- inhibition [1]: 6%
- inhibition [2]: 7%
- inhibition [3]: 11%
- inhibition [4]: 15%
- inhibition [5]: 0%
- inhibition [6]: 5%
- concentration at 4 h [7]: 488 ng/mL
- concentration at 8 h [8]: 122 ng/mL
- Ki [9]: 1.4 µM
- Ki [10]: 1.4 µM
- Ki [11]: > 4 µM
- Ki [12]: > 4 µM
- Ki [13]: > 4 µM
- Ki [14]: > 4 µM
- Ki [15]: > 4 µM
- Ki [16]: > 10 µM
- Ki [17]: > 10 µM
- inhibition [18]: 0%
- inhibition [19]: 5%
- inhibition [20]: 7%
- inhibition [21]: 3%
- inhibition [22]: 0%
- inhibition [23]: 5%
- inhibition [24]: 0%
- inhibition [25]: 24%
- inhibition [26]: 40%
- inhibition [27]: 0%
- inhibition [28]: 3%
- inhibition [29]: 2%
- inhibition [30]: 1%
- inhibition [31]: 0%
- inhibition [32]: 3%
- inhibition [33]: 12%
- inhibition [34]: 6%
- inhibition [35]: 4%
- inhibition [36]: 43%
- inhibition [37]: 7%
- inhibition [38]: 18%
- inhibition [39]: 0%
- inhibition [40]: 69%
- inhibition [41]: 6%
- inhibition [42]: 18%
- inhibition [43]: 3%
- inhibition [44]: 19%
- inhibition [45]: 3%
- inhibition [46]: 10%
- inhibition [47]: 50%
- inhibition [48]: 6%
- inhibition [49]: 3%
- concentration at 8 h [50]: 50 ng/mL
- Ki [51]: 0.852 µM
